Results reported in publication PMC10006169, “A phase I trial of LXS196, a protein kinase C (PKC) inhibitor, for metastatic uveal melanoma” (British Journal of Cancer, 2023).
Read-outs that look alike come from different tables or passages of the source.

Experiment: Plasma pharmacokinetics (LC-MS/MS)
Format: in vivo, human
Details: human, plasma, oral; for Tmax: read-out: Tmax, Median (Min, max); for concentration at 15 day: read-out: Cmin, Median (Min, max)
Protocol: In the dose escalation part of the study, PK samples were collected at various pre- and post-dose time points on C1D1, D2, D3, D15 and D16. Drug concentrations were assessed using a validated liquid chromatography-tandem mass spectrometry assay.

Work on `CC1(N)CCN(c2cccnc2NC(=O)c2nc(-c3ncccc3C(F)(F)F)cnc2N)CC1` [LXS196] yielded a Tmax (100 mg, C1D1, 100 mg QD, n=3) of 1 h, an AUC(0-t) (100 mg, C1D15, 100 mg QD, n=2, read-out: AUC0-t, Geo-mean) of 10400 ng·h/mL and an AUC(0-t) (100 mg, C1D15, 100 mg QD, n=2, read-out: AUC0-t, Mean (SD)) of 10400 ng·h/mL. It also gave an AUC(0-t) (100 mg, C1D15, 100 mg QD, n=2, read-out: AUC0-t, Median (Min, max)) of 10400 ng·h/mL, a Cmax (100 mg, C1D15, 100 mg QD, n=3, read-out: Cmax, Geo-mean) of 1180 ng/mL and a Cmax (100 mg, C1D15, 100 mg QD, n=3, read-out: Cmax, Mean (SD)) of 1190 ng/mL. For the same molecule, the Cmax (100 mg, C1D15, 100 mg QD, n=3, read-out: Cmax, Median (Min, max)) was 1260 ng/mL, the concentration at 15 day (100 mg, C1D15, 100 mg QD, n=3) was 112 ng/mL and the Tmax (100 mg, C1D15, 100 mg QD, n=3) was 1 h. For the same molecule, the AUC(0-t) (200 mg, C1D1, 200 mg BID, n=6, read-out: AUC0-t, Geo-mean) was 15400 ng·h/mL, the AUC(0-t) (200 mg, C1D1, 200 mg BID, n=6, read-out: AUC0-t, Mean (SD)) was 18600 ng·h/mL and the AUC(0-t) (200 mg, C1D1, 200 mg BID, n=6, read-out: AUC0-t, Median (Min, max)) was 13300 ng·h/mL. For the same molecule, the AUC(0-inf) (200 mg, C1D1, 200 mg BID, n=6, read-out: AUCinf, Geo-mean) was 24000 ng·h/mL, the AUC(0-inf) (200 mg, C1D1, 200 mg BID, n=6, read-out: AUCinf, Mean (SD)) was 29200 ng·h/mL and the AUC(0-inf) (200 mg, C1D1, 200 mg BID, n=6, read-out: AUCinf, Median (Min, max)) was 21600 ng·h/mL. The Cmax (200 mg, C1D1, 200 mg BID, n=6, read-out: Cmax, Geo-mean) was 3270 ng/mL, the Cmax (200 mg, C1D1, 200 mg BID, n=6, read-out: Cmax, Mean (SD)) was 4070 ng/mL and the Cmax (200 mg, C1D1, 200 mg BID, n=6, read-out: Cmax, Median (Min, max)) was 2950 ng/mL. The half-life (200 mg, C1D1, 200 mg BID, n=6, read-out: T1/2, Geo-mean (converted)) was 13 h, the half-life (200 mg, C1D1, 200 mg BID, n=6, read-out: T1/2, Mean (SD) (converted)) was 13.1 h and the half-life (200 mg, C1D1, 200 mg BID, n=6, read-out: T1/2, Median (Min, max) (converted)) was 13.1 h. It also gave a Tmax (200 mg, C1D1, 200 mg BID, n=6) of 0.525 h, an AUC(0-t) (200 mg, C1D1, 200 mg QD, n=3, read-out: AUC0-t, Geo-mean) of 18700 ng·h/mL and an AUC(0-t) (200 mg, C1D1, 200 mg QD, n=3, read-out: AUC0-t, Mean (SD)) of 19100 ng·h/mL. For the same molecule, the AUC(0-t) (200 mg, C1D1, 200 mg QD, n=3, read-out: AUC0-t, Median (Min, max)) was 18900 ng·h/mL, the AUC(0-inf) (200 mg, C1D1, 200 mg QD, n=3, read-out: AUCinf, Geo-mean) was 21300 ng·h/mL and the AUC(0-inf) (200 mg, C1D1, 200 mg QD, n=3, read-out: AUCinf, Mean (SD)) was 21600 ng·h/mL. It also gave an AUC(0-inf) (200 mg, C1D1, 200 mg QD, n=3, read-out: AUCinf, Median (Min, max)) of 22600 ng·h/mL, a Cmax (200 mg, C1D1, 200 mg QD, n=3, read-out: Cmax, Geo-mean) of 3410 ng/mL and a Cmax (200 mg, C1D1, 200 mg QD, n=3, read-out: Cmax, Mean (SD)) of 3540 ng/mL. It also gave a Cmax (200 mg, C1D1, 200 mg QD, n=3, read-out: Cmax, Median (Min, max)) of 2860 ng/mL, a half-life (200 mg, C1D1, 200 mg QD, n=3, read-out: T1/2, Geo-mean (converted)) of 8.36 h and a half-life (200 mg, C1D1, 200 mg QD, n=3, read-out: T1/2, Mean (SD) (converted)) of 8.52 h. For the same molecule, the half-life (200 mg, C1D1, 200 mg QD, n=3, read-out: T1/2, Median (Min, max) (converted)) was 8.44 h, the Tmax (200 mg, C1D1, 200 mg QD, n=3) was 1 h and the AUC(0-t) (200 mg, C1D15, 200 mg BID, n=5, read-out: AUC0-t, Geo-mean) was 15400 ng·h/mL. The AUC(0-t) (200 mg, C1D15, 200 mg BID, n=5, read-out: AUC0-t, Mean (SD)) was 16900 ng·h/mL, the AUC(0-t) (200 mg, C1D15, 200 mg BID, n=5, read-out: AUC0-t, Median (Min, max)) was 16000 ng·h/mL and the Cmax (200 mg, C1D15, 200 mg BID, n=5, read-out: Cmax, Geo-mean) was 2470 ng/mL. For the same molecule, the Cmax (200 mg, C1D15, 200 mg BID, n=5, read-out: Cmax, Mean (SD)) was 2910 ng/mL, the Cmax (200 mg, C1D15, 200 mg BID, n=5, read-out: Cmax, Median (Min, max)) was 2540 ng/mL and the concentration at 15 day (200 mg, C1D15, 200 mg BID, n=5) was 883 ng/mL. It also gave a Tmax (200 mg, C1D15, 200 mg BID, n=5) of 1 h, an AUC(0-t) (200 mg, C1D15, 200 mg QD, n=3, read-out: AUC0-t, Geo-mean) of 12900 ng·h/mL and an AUC(0-t) (200 mg, C1D15, 200 mg QD, n=3, read-out: AUC0-t, Mean (SD)) of 13200 ng·h/mL. It also gave an AUC(0-t) (200 mg, C1D15, 200 mg QD, n=3, read-out: AUC0-t, Median (Min, max)) of 13800 ng·h/mL, a Cmax (200 mg, C1D15, 200 mg QD, n=3, read-out: Cmax, Geo-mean) of 2490 ng/mL and a Cmax (200 mg, C1D15, 200 mg QD, n=3, read-out: Cmax, Mean (SD)) of 2500 ng/mL. The Cmax (200 mg, C1D15, 200 mg QD, n=3, read-out: Cmax, Median (Min, max)) was 2620 ng/mL, the concentration at 15 day (200 mg, C1D15, 200 mg QD, n=3) was 149 ng/mL and the Tmax (200 mg, C1D15, 200 mg QD, n=3) was 1 h. The AUC(0-inf) (300 mg, C1D1, 300 mg BID, n=16, read-out: AUCinf, Geo-mean) was 30900 ng·h/mL, the AUC(0-inf) (300 mg, C1D1, 300 mg BID, n=16, read-out: AUCinf, Mean (SD)) was 35200 ng·h/mL and the AUC(0-inf) (300 mg, C1D1, 300 mg BID, n=16, read-out: AUCinf, Median (Min, max)) was 28400 ng·h/mL. The half-life (300 mg, C1D1, 300 mg BID, n=16, read-out: T1/2, Geo-mean (converted)) was 11.9 h, the half-life (300 mg, C1D1, 300 mg BID, n=16, read-out: T1/2, Mean (SD) (converted)) was 12.1 h and the half-life (300 mg, C1D1, 300 mg BID, n=16, read-out: T1/2, Median (Min, max) (converted)) was 11.8 h.
